Data published in US20090246134A1, “COMPOSITIONS AND METHODS FOR MODULATING GATED ION CHANNELS” (PainCeptor Pharma Corporation, priority 2007, published 2009).

How the values were obtained:
[1] = Plasma composition analysis, parent compound and metabolites by MS; type: in vivo; conditions: rat plasma
Description: Rats receive compounds (5 mg/kg) dissolved in HPβCD 15%, dextrose 2.5%, pH 5 by intravenous (i.v). route or (25-30 mg/kg) dissolved in HPβCD 15%, dextrose 2.5%, […] (s.c.) route or (50-150 mg/kg) dissolved in HPβCD 15%, dextrose 2.5%, pH 5 by oral (p.o.) route. After the treatment, approximately 100 μl of blood sample is collected and the accurate bleeding time is recorded for each sample. Each blood sample is collected into Microvette blood collection tube containing anticoagulant lithium heparin. Following collection, the samples are centrifuged at […] for 15 minutes (to avoid haemolysis) and the plasma obtained from each is recovered and stored frozen (at −80° C.) pending analysis. Frozen samples are shipped on dry ice to quantify drug concentration within plasma after extraction procedure as previously described in Example 13.

ASIC1a = target: T1, ASIC1a (Homo sapiens, UniProt P78348); assay: Whole cell patch clamp in heterologous expression system (CHO cells); type: cell-based; parameters: expressed in transfected cells; host or cells: CHO cells
T1 sequence (P78348 1-528): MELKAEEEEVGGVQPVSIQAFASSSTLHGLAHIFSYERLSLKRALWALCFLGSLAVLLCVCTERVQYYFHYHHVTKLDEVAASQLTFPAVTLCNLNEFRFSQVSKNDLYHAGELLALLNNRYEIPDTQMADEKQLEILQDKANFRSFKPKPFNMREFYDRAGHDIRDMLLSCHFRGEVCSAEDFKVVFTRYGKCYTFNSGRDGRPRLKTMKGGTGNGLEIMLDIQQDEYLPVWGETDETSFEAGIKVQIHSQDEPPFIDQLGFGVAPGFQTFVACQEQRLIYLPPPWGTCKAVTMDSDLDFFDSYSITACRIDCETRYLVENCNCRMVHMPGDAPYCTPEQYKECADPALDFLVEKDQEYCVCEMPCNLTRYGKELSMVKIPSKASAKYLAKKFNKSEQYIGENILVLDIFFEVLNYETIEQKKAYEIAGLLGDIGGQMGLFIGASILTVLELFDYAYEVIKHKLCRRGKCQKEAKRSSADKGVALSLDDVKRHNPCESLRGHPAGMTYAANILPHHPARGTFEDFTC
Description: Another example of an in vitro assessment method consists of using mammalian heterologous expression systems, which are known to the skilled in the art, and include a variety of mammalian cell lines such as COS, HEK, e.g., HEK293 and/or CHO, cells. Cell lines are transfected with gated ion channel(s) and used to perform electrophysiology as follows:
All experiments are performed at room temperature (20-25° C.) in voltage clamp using conventional whole cell patch clamp methods (Neher, E., et al. (1978) Pfluegers Arch 375:219-228).
The amplifier used is the EPC-9 (HEKA-electronics, Lambrect, Germany) run by a Macintosh G3 computer via an ITC-16 interface. Experimental conditions are set with the Pulse-software accompanying the amplifier. Data is low pass filtered and sampled directly to hard-disk at a rate of 3 times the cut-off frequency.
Pipettes are pulled from borosilicate glass using a horizontal electrode puller (Zeitz-lnstrumente, Augsburg, Germany). The pipette resistances are 2-3 MOhms in the salt solutions used in these experiments. The pipette electrode is a chloridized silver wire, and the reference is a silver chloride pellet electrode (In Vivo Metric, Healdsburg, USA) fixed to the experimental chamber. The electrodes are zeroed with the open pipette in the bath just prior to sealing.
Coverslips with the cells are transferred to a 15 μl experimental chamber mounted on the stage of an inverted microscope (IMT-2, Olympus) supplied with Nomarski optics. Cells are continuously superfused with extracellular saline at a rate of 2.5 ml/min. After giga-seal formation, the whole cell configuration is attained by suction. The cells are held at a holding voltage of −60 mV and at the start of each experiment the current is continuously measured for 45 s to ensure a stable baseline. […] Current amplitudes are measured at the peak of the responses, and effect of the compounds is calculated as the amplitude at compound equilibrium divided by the amplitude of the current evoked by the pulse just before the compound was included. […]

With `COc1ccc(F)cc1-c1cc2c(c3c1CCN(C)C3)NC(=O)C2=NO` [Compound A, 5-(5-fluoro-2-methoxyphenyl)-6,7,8,9-tetrahydro-3-(hydroxyimino)-8-methyl-1H-pyrrolo[3,2-h]isoquinoline-2(3H)-one] the “Plasma Component: N-desMe or desEt” value ([1]; IV 5 mg/kg) was “Small”, the “Plasma Component: O-desMe” value ([1]; IV 5 mg/kg) was “Trace” and the “Plasma Component: N-desMe or desEt” value ([1]; PO 50 mg/kg) was “Small”. The “Plasma Component: O-desMe” value ([1]; PO 50 mg/kg) was “Trace”, the “human ASIC1a pH-evoked response” value (ASIC1a) was “reduce the human ASIC1a pH-evoked response in CHO cells in a dose-dependent manner” and the “potency relative to amiloride on human ASIC1a pH-evoked response” value (ASIC1a) was “about 100 fold”.
